Tests used:
[1] = system: HuP-T3 (Pancreatic Carcinoma); assay: combination Emax (second highest fraction inhibited in the dose matrix, 72 h); higher = more inhibition; extreme values may be limits of the assay
Method in brief: (§1)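 Cell lines grown in DMEM/F12 or RPMI with 10% FBS were plated in 1536-well plates and held 24 hours at 37°C, 5% CO2 before 72 hours of exposure to two-drug dose matrices, with DMSO typically at 0.2%. CellTiter-Glo 2.0 luminescence gave viability, which was converted to inhibition. Vehicle wells were set to 0 and blank wells to 1. Combination Emax is the second-highest inhibition in the matrix, and Bliss excess is the observed combination effect minus the expected EA + EB − EA·EB, where EA and EB are the single-agent effects.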

[2] = system: OCUM-1 (Gastric Carcinoma); assay: as above
Method in brief: as §1

GI-1 (Glioblastoma) = assay: as above
Method in brief: as §1

[3] = system: NCI-H513 (Other Solid Carcinomas); assay: as above
Method in brief: as §1

[4] = system: H-EMC-SS (Chondrosarcoma); assay: as above
Method in brief: as §1

[5] = system: NCI-H2347 (Lung Adenocarcinoma); assay: as above
Method in brief: as §1

[6] = system: OCUB-M (Breast Carcinoma); assay: as above
Method in brief: as §1

[7] = system: ASH-3 (Thyroid Gland Carcinoma); assay: Bliss excess, mean over the matrix (fraction); higher = more synergy
Method in brief: as §1

[8] = system: LC4-1 (B-Lymphoblastic Leukemia); assay: as above
Method in brief: as §1

BT-20 (Breast Carcinoma) = assay: as above
Method in brief: as §1

NH-12 (Neuroblastoma) = assay: as above
Method in brief: as §1

[9] = system: SCC-3 (B-Cell Non-Hodgkin's Lymphoma); assay: as above
Method in brief: as §1

[10] = system: PF-382 (T-Lymphoblastic Leukemia); assay: as above
Method in brief: as §1

[11] = system: EMC-BAC-2 (Non-Small Cell Lung Carcinoma); assay: as above
Method in brief: as §1

[12] = system: H-EMC-SS (Chondrosarcoma); assay: as above
Method in brief: as §1

[13] = system: EBC-1 (Squamous Cell Lung Carcinoma); assay: as above
Method in brief: as §1

[14] = system: LOU-NH91 (Squamous Cell Lung Carcinoma); assay: as above
Method in brief: as §1

[15] = system: KYSE-50 (Esophageal Squamous Cell Carcinoma); assay: as above
Method in brief: as §1

[16] = system: OVISE (Ovarian Carcinoma); assay: as above
Method in brief: as §1
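Wherever Bliss excess, mean over the matrix is given: after 72 h of two-drug dosing.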

| SMILES | combination Emax [1] | combination Emax [2] | combination Emax (GI-1 (Glioblastoma)) | combination Emax [3] | combination Emax [4] | combination Emax [5] | combination Emax [6] | Bliss excess [7] | Bliss excess [8] | Bliss excess (BT-20 (Breast Carcinoma)) | Bliss excess (NH-12 (Neuroblastoma)) | Bliss excess [9] | Bliss excess [10] | Bliss excess [11] | Bliss excess [12] | Bliss excess [13] | Bliss excess [14] | Bliss excess [15] | Bliss excess [16] |
| --- | --- | --- | --- | --- | --- | --- | --- | --- | --- | --- | --- | --- | --- | --- | --- | --- | --- | --- | --- |
| Cc1cc2ncnn2cc1Nc1ncc2c(n1)n(C1CCOCC1)c(=O)n2C [AZD7648] + C=CCn1c(=O)c2cnc(Nc3ccc(N4CCN(C)CC4)cc3)nc2n1-c1cccc(C(C)(C)O)n1 [AZD1775] (first compound max 10 µM, partner max 1 µM) | 0.283 | 0.384 | 0.86 | 0.431 | 0.53 | 0.359 | 0.448 | -0.0006 | -0.001 | -0.0186 | 0.0005 | -0.0277 | -0.0029 | 0.0058 | -0.028 | -0.0041 | 0.012 | 0.0011 | -0.0043 |
| Cc1cc2ncnn2cc1Nc1ncc2c(n1)n(C1CCOCC1)c(=O)n2C [AZD7648] + C[C@@H]1COCCN1C2=NC(=NC(=C2)C3(CC3)[S@](=N)(=O)C)C4=C5C=CNC5=NC=C4 [AZD6738] (first compound max 10 µM, 7x7, partner max 10 µM) | 0.606 | 0.719 | 0.888 | 0.31 | 0.475 | 0.401 | 0.49 | 0.0459 | 0.0469 | 0.0399 | -0.0035 | -0.0083 | 0.0263 | 0.0575 | 0.0095 | 0.0513 | 0.0337 | -0.0089 | 0.0508 |
| COc1cccc(OCCCN)c1-c1cc(Nc2cnc(C#N)cn2)n[nH]1 [Prexasertib] + C[C@@H]1COCCN1C2=NC(=NC(=C2)C3(CC3)[S@](=N)(=O)C)C4=C5C=CNC5=NC=C4 [AZD6738] (first compound max 1 µM, 7x7, partner max 10 µM) | 0.663 | 0.813 | 0.962 | 0.363 | 0.383 | 0.458 | 0.585 | 0.0902 | -0.0033 | -0.0218 | -0.0392 | -0.0201 | -0.0558 | 0.0076 | -0.0013 | -0.0113 | 0.0295 | 0.0034 | 0.0341 |
| COc1cccc(OCCCN)c1-c1cc(Nc2cnc(C#N)cn2)n[nH]1 [Prexasertib] + O=C(c1cc(Cc2n[nH]c(=O)c3ccccc23)ccc1F)N1CCN(C(=O)C2CC2)CC1 [Olaparib] (first compound max 1 µM, 7x7, partner max 10 µM) | 0.695 | 0.7 | 0.933 | 0.295 | 0.31 | 0.378 | 0.701 | 0.027 | -0.0432 | 0.0405 | -0.0746 | -0.0133 | -0.017 | -0.0494 | -0.0445 | -0.0052 | 0.0427 | -0.117 | -0.0578 |
| COc1cccc2c1C(=O)c1c(O)c3c(c(O)c1C2=O)C[C@@](O)(C(=O)CO)C[C@@H]3O[C@H]1C[C@H](N)[C@H](O)[C@H](C)O1 [Doxorubicin] + Cc1cc2ncnn2cc1Nc1ncc2c(n1)n(C1CCOCC1)c(=O)n2C [AZD7648] (first compound max 1 µM, 7x7, partner max 10 µM) | 0.606 | 0.596 | 0.929 | 0.527 | 0.957 | 0.253 | 0.943 | 0.0829 | 0.111 | 0.0371 | 0.0953 | 0.158 | 0.109 | 0.0828 | -0.0179 | 0.0275 | 0.0236 | 0.0331 | 0.0341 |
| COc1cccc(OCCCN)c1-c1cc(Nc2cnc(C#N)cn2)n[nH]1 [Prexasertib] + CN(C)CCCOc1ccc(-c2ccc3ncc4c(c3c2)n(C2CCOCC2)c(=O)n4C)cn1 [AZD0156] (first compound max 1 µM, 7x7, partner max 1 µM) | 0.7 | 0.818 | 0.966 | 0.343 | 0.493 | 0.42 | 0.574 | 0.0014 | -0.0113 | -0.026 | 0.0111 | 0.0103 | -0.0448 | 0.0756 | -0.0264 | -0.0297 | -0.0374 | 0.0138 | 0.0209 |
| Cc1cc2ncnn2cc1Nc1ncc2c(n1)n(C1CCOCC1)c(=O)n2C [AZD7648] + CCN(CCO)CCCOc1ccc2c(Nc3cc(CC(=O)Nc4cccc(F)c4)[nH]n3)ncnc2c1 [AZD2811] (first compound max 10 µM, 7x7, partner max 1 µM) | 0.161 | 0.369 | 0.425 | 0.116 | 0.545 | 0.302 | 0.764 | 0.0309 | -0.114 | -0.0432 | -0.001 | 0.0548 | 0.0137 | 0.0514 | -0.0452 | 0.0147 | 0.0693 | 0.0784 | -0.0105 |
| CN(C)CCCOc1ccc(-c2ccc3ncc4c(c3c2)n(C2CCOCC2)c(=O)n4C)cn1 [AZD0156] + C=CCn1c(=O)c2cnc(Nc3ccc(N4CCN(C)CC4)cc3)nc2n1-c1cccc(C(C)(C)O)n1 [AZD1775] (first compound max 1 µM, partner max 1 µM) | 0.205 | 0.548 | 0.88 | 0.393 | 0.346 | 0.335 | 0.209 | 0.0012 | -0.0353 | -0.0937 | -0.0406 | -0.0162 | -0.0121 | -0.0289 | -0.0535 | -0.0603 | -0.0349 | -0.0116 | -0.0374 |
